Measured values as given in ChEMBL document CHEMBL1201862, “PubChem BioAssay data set” (2004).
Activity calls are given as the source filed them.

How the values were obtained:
[1] = target: NAD-dependent protein deacylase sirtuin-5, mitochondrial (Homo sapiens, UniProt Q9NXA8); test: SIRT5 deacylase inhibitors, dose response, biochemical, fluorescence imaging, cherry-pick, set 6 (AID 720597)
Protein skinhead-1 = target: T1, Protein skinhead-1 (Caenorhabditis elegans, UniProt P34707); type: functional
T1 sequence (P34707 whole entry): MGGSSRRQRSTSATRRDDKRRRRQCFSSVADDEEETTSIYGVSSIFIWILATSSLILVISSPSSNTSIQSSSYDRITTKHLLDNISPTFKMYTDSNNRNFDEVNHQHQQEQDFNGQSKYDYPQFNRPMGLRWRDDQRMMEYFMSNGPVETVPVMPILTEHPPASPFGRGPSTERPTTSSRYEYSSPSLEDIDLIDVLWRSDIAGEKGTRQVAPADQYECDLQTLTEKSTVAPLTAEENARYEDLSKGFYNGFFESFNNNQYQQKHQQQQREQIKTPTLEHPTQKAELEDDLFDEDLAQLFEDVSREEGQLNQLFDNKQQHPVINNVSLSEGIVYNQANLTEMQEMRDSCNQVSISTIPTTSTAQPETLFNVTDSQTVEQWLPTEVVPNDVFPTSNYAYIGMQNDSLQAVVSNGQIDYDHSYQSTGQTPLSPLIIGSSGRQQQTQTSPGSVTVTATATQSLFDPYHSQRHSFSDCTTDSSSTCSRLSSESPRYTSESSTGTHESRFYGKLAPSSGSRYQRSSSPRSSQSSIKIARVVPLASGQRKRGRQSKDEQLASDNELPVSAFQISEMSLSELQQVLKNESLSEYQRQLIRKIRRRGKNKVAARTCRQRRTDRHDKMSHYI

[2] = target: T2, DNA repair protein RAD52 homolog (Homo sapiens, UniProt P43351); type: functional, biochemical
T2 sequence (P43351 whole entry): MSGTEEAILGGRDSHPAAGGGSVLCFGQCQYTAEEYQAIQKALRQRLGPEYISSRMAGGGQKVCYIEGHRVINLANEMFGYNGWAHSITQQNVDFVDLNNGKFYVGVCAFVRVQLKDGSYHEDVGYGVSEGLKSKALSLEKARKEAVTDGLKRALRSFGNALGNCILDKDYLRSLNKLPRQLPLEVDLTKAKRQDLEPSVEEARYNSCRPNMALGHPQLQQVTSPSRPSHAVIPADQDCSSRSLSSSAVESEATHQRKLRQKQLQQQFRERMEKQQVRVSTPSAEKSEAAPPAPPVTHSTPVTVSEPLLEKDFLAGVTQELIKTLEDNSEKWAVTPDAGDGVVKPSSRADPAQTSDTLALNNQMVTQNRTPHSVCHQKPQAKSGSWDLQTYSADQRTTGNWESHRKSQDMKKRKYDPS

Caspase-6 = Caspase-6 (Homo sapiens, UniProt P55212); test: human caspase-6 inhibitors, dose response, biochemical, VEID-R110 fluorescence, cherry-pick (AID 720632)
[3] = target: T3, Histone-lysine N-methyltransferase NSD2 (Homo sapiens, UniProt O96028); type: biochemical
T3 sequence (O96028 whole entry): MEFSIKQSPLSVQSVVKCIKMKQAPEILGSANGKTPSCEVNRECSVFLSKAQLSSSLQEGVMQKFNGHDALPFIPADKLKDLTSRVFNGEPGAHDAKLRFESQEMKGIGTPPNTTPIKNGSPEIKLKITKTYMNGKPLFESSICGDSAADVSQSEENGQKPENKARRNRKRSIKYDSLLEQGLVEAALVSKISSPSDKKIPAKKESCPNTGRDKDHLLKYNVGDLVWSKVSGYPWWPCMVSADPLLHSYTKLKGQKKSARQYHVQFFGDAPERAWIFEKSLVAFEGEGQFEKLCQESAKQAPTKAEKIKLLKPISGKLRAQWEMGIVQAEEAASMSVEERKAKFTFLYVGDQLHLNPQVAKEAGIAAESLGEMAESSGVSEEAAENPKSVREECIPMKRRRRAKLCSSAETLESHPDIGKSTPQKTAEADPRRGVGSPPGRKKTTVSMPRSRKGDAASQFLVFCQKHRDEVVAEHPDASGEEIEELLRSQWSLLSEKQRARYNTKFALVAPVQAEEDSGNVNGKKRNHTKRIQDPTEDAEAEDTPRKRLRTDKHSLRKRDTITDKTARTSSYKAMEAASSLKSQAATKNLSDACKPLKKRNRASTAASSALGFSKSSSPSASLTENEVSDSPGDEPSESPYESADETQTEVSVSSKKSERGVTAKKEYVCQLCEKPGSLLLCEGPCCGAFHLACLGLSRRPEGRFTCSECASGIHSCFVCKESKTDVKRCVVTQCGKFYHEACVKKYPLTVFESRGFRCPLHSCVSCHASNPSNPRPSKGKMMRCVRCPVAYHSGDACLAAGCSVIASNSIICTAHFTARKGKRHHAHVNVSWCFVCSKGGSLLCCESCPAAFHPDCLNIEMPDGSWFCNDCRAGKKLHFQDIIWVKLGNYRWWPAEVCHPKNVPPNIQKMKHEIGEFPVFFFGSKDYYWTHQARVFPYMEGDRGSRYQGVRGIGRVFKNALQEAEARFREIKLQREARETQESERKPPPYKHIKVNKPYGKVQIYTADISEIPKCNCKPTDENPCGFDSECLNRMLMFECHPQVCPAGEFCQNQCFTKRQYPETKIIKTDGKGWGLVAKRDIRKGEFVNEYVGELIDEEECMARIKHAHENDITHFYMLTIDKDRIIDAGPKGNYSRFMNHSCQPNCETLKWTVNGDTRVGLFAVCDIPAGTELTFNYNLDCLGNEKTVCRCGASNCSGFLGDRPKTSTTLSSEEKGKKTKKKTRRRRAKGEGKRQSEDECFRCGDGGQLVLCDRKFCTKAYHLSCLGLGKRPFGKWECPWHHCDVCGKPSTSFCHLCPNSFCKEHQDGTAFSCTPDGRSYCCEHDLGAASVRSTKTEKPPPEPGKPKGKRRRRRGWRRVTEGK

Caspase-7 = Caspase-7 (Homo sapiens, UniProt P55210); test: human caspase-7 inhibitors, dose response, selectivity assay for caspase-6 inhibitor project, biochemical, DEVD-R110 fluorescence, cherry-pick (AID 743295)
[4] = P. falciparum 3D7-ScDHODH growth inhibitors, dose response, SYBR Green, dry powder samples (AID 1159570); type: functional, cell-based;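 note: parasite growth measured after 72 hours of compound exposure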
[5] = HepG2 cell cytotoxicity, dose response, cytotoxicity control, plate reader, dry powder samples (AID 1159569); type: functional, cell-based;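 note: inhibitor potency with signal falling toward the positive control level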
[6] = P. falciparum Dd2 growth inhibitors, dose response, SYBR Green, cherry-picked samples (AID 1159567); type: functional, cell-based
[7] = P. falciparum Dd2 growth inhibitors, dose response, SYBR Green, dry powder samples (AID 1159566); type: functional, cell-based;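 note: potency for growth inhibition with lower SYBR green DNA signal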
[8] = P. falciparum ATP4 D1247Y mutant growth inhibitors, dose response, NITD609-resistant line, SYBR Green, dry powder (AID 1159571); type: functional, cell-based;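 note: parasites synchronized at ring stage by sorbitol before testing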
Kallikrein-7 = Kallikrein-7 (Homo sapiens, UniProt P49862); test: Fluorescence Intensity-based biochemical primary high throughput dose response assay to identify activators of kallikrein-7 (K7) zymogen.
[9] = TRPM1 promoter luciferase reporter signal decrease, dose response, MITF inhibitor project, cell-based, SK-MEL-5, dry powder, set 9 (AID 651588); type: functional
[10] = A375 melanoma cell viability loss, dose response, counter-screen for MITF inhibitor project, CellTiter-Glo luminescence, dry powder, set 4 (AID 624364); type: functional, cell-based; details: A-375;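 note: A375 melanoma cells are MITF independent so this is a counter screen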
[11] = SK-MEL-5 parental cell viability reduction, dose response, orthogonal assay for MITF inhibitor project, CellTiter-Glo luminescence, dry powder, set 8 (AID 651586); type: functional, cell-based
[12] = MITF Orthogonal Assay: SK-MEL-5 CTG Assay Measured in Cell-Based System Using Plate Reader - 2084-02_Inhibitor_Dose_DryPowder_Activity_Set5.; type: functional
[13] = MITF Measured in Cell-Based System Using Plate Reader - 2084-01_Inhibitor_Dose_DryPowder_Activity_Set6.; type: functional
[14] = MITF Measured in Cell-Based System Using Plate Reader - 2084-01_Inhibitor_Dose_DryPowder_Activity_Set7.; type: functional
[15] = HepG2 cell cytotoxicity, dose response, cytotoxicity control, cherry-picked samples (AID 1159577); type: functional, cell-based
Melanocortin receptor 4 = Melanocortin receptor 4 (Homo sapiens, UniProt P32245); test: MC4R antagonist potency on cAMP, dose response, cell-based, TR-FRET, biased antagonists (AID 602298); type: functional;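 note: antagonist potency against agonist-stimulated cAMP production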
[16] = Shn3 3'UTR reporter inhibitors, dose response, cell-based, Clone20 osteoblasts, firefly luciferase, cherry-picked (AID 624132); type: functional;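 note: firefly luciferase luminescence from reporter carrying the Shn3 3'UTR in osteoblasts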
[17] = HepG2 cell cytotoxicity, dose response, cytotoxicity control for Shn3 inhibitor project, CellTiter-Glo, cherry-picked (AID 624134); type: functional, cell-based
[18] = control 3'UTR Renilla luciferase suppression, dose response, counter-screen for Shn3 inhibitor project, cell-based, Clone20-Shn3RL, cherry-picked (AID 624133); type: functional
[19] = nonselective inhibitors of cellular cAMP signaling, dose response, counter-screen for MC4R biased antagonist project, cell-based, TR-FRET cAMP detection (AID 602305); type: functional;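 note: U2OS cells stimulated with forskolin near its EC80 as the cAMP inducer; potency is for inhibition of forskolin-stimulated cAMP signaling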
Paired box protein Pax-8 = Paired box protein Pax-8 (Homo sapiens, UniProt Q06710); test: inhibitors of PAX8-driven TPO luciferase reporter, dose response, RMG-I cells, cherry-pick (AID 687027); type: functional, cell-based;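 note: luciferase reporter driven by Pax8 target thyroperoxidase promoter measured by SteadyGlo luminescence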
[20] = A549 cell cytotoxicity, dose response, cytotoxicity control, 24 h, CellTiter-Glo luminescence, cherry-picks (AID 1053115); type: functional, cell-based; details: A549, 24 h
[21] = A549 cell cytotoxicity, dose response, CellTiter-Glo luminescence, dry powder, set 17 (AID 1117284); type: functional, cell-based

Paired box protein Pax-8, sequence (Q06710 whole entry): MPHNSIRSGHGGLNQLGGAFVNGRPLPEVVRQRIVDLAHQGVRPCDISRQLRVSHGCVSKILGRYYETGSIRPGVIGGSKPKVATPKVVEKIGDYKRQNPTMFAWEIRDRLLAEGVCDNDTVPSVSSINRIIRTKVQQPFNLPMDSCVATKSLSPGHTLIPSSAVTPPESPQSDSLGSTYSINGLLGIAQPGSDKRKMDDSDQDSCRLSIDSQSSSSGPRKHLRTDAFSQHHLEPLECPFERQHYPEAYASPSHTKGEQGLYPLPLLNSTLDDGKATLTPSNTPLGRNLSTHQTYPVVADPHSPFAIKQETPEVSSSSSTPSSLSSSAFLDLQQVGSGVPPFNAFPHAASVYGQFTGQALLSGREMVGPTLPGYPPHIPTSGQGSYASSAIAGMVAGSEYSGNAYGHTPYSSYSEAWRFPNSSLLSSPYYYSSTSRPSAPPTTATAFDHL
Caspase-6, sequence (P55212 24-179 limits assumed): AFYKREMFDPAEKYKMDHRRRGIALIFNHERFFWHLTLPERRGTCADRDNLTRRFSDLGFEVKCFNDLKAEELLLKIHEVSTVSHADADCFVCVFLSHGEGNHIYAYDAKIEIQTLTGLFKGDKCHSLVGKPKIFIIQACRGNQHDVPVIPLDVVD
Caspase-6, sequence (P55212 194-293 limits assumed): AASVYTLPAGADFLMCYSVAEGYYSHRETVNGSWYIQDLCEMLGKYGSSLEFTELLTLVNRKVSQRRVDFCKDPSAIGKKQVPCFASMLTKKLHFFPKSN
NAD-dependent protein deacylase sirtuin-5, mitochondrial, sequence (Q9NXA8 whole entry): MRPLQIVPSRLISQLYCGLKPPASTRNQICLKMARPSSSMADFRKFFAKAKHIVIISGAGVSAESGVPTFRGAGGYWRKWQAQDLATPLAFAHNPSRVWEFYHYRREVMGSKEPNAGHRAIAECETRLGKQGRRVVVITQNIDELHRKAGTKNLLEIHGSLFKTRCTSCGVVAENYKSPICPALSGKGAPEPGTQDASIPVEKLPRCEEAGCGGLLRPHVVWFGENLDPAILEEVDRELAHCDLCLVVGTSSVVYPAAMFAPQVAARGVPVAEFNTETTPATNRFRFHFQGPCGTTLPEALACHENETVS
Caspase-7, sequence (P55210 24-198 limits assumed): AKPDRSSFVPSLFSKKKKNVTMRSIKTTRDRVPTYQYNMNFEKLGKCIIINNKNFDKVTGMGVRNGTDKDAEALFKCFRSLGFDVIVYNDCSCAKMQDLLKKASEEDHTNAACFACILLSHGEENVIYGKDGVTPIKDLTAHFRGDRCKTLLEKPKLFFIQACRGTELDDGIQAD
Caspase-7, sequence (P55210 207-303 limits assumed): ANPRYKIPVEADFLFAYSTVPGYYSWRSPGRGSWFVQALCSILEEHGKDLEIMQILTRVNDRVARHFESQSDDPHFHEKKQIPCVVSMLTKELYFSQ
Melanocortin receptor 4, sequence (P32245 whole entry): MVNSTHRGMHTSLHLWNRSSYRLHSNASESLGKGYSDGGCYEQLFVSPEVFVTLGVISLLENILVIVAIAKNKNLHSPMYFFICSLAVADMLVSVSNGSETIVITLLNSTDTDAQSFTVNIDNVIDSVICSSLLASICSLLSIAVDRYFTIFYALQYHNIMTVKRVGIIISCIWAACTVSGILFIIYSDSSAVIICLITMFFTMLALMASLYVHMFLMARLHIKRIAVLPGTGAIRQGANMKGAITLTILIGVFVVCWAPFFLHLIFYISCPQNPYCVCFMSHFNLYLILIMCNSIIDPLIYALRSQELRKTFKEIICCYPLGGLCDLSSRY
Kallikrein-7, sequence (P49862 whole entry): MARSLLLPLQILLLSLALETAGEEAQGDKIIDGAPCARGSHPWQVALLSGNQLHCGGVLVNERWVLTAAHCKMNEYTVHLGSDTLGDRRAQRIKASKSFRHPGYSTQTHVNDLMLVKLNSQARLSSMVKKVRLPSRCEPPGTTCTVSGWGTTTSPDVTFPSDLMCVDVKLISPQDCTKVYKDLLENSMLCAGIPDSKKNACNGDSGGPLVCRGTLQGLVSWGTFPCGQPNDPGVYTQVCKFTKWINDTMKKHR

## COCC(=O)Nc1ccc2c(c1)OC[C@@H](C)N(CCc1ccccc1)C[C@@H](C)[C@H](OC)CN(C)C2=O
[1]
  AC50: > 30 µM (inactive)

## COc1cc(NCCCCC(C)N)c2nccc(C)c2c1 (stereo not drawn)
Protein skinhead-1
  IC50: > 100 µM (inactive)
[2]
  AC50: 5.43 µM (active)
Caspase-6
  AC50: 4.77 µM (active)
[3]
  AC50: 2.52 µM (active)
Caspase-7
  AC50: 24.9 µM (active)

## C[C@@H]1CN([C@H](C)CO)S(=O)(=O)c2ccc(-c3ccncc3)cc2O[C@H]1CN(C)Cc1ccc(Oc2ccccc2)cc1
[4]
  AC50: 0.573 µM (active)
[5]
  AC50: 50 µM (active)
[6]
  AC50: 1.51 µM (active)
[7]
  AC50: 0.583 µM (active)
[8]
  AC50: 0.841 µM (active)

## Fc1ccc(-c2nc3cnccn3c2NC2CCCC2)cc1
Kallikrein-7
  EC50: > 7.72 µM (active)

## NC1=C(NS(=O)(=O)c2ccc(Br)s2)C(=O)c2ccccc2C1=O
[9]
  AC50: > 70 µM (inactive)
[10]
  AC50: > 70 µM (inactive)
[11]
  AC50: > 70 µM (inactive)
[12]
  AC50: > 70 µM (inactive)
[13]
  AC50: > 70 µM (inactive)
[14]
  AC50: 65.8 µM (active)

## Cc1cccc(S(=O)(=O)N2CCCCN3[C@@H](CO)[C@@H](c4ccc(-c5ccccc5)cc4)[C@@H]3C2)c1
[6]
  AC50: 1.26 µM (active)
[15]
  AC50: 19.8 µM (active)

## C[C@H](O)C#Cc1ccc2c(c1)O[C@@H](CN(C)Cc1ccc(-c3ccccc3)cc1)[C@H](C)CN([C@@H](C)CO)S2(=O)=O
Melanocortin receptor 4
  IC50: > 64.6 µM (inactive)
[16]
  AC50: 10.3 µM (active)
[17]
  AC50: 19.4 µM (active)
[18]
  AC50: 27.6 µM (active)
[19]
  IC50: > 64.6 µM (inactive)
Paired box protein Pax-8
  AC50: 6.73 µM (active)
[20]
  AC50: 42.8 µM (active)
[21]
  AC50: 28.3 µM (active)
